Results as given in ChEMBL document CHEMBL3885861, “Open TG-GATES”.

Species: Rattus norvegicus
Experiment: Open TG-GATES - Regimen: Single
Format: toxicity, organism-based, Sprague-Dawley
Set-up: regimen Single, gender Male, age 6 weeks
Conditions: in vivo, po, 1 mg/kg, route gavage, dose level Low; for KIDNEY_L / KIDNEY_R / KIDNEY_TOTAL: tissue Kidney; for LIVER: tissue Liver

COc1ccc2c(c1)c(CC(=O)O)c(C)n2C(=O)c1ccc(Cl)cc1 [INDOMETHACIN]
MCV (6 h, tissue Blood): 66 fL
Mono (6 h, tissue Blood): 9%
Neu (6 h, tissue Blood): 11.6%
PT (6 h, tissue Blood): 12.5 s
Plat (6 h, tissue Blood): 104.4 x10_4/uL
RBC (6 h, tissue Blood): 623.2 x10_4/ul
Ret (6 h, tissue Blood): 9.4%
WBC (6 h, tissue Blood): 102.9 x10_2/uL
KIDNEY_L (6 h): 1 g
KIDNEY_R (6 h): 0.9 g
KIDNEY_TOTAL (6 h): 1.9 g
LIVER (6 h): 8.8 g
A/G (6 h, tissue Plasma): 1.7
ALP (6 h, tissue Plasma): 1218.4 IU/L
ALT (6 h, tissue Plasma): 35.8 IU/L
AST (6 h, tissue Plasma): 70.6 IU/L
BUN (6 h, tissue Plasma): 11 mg/dL
CRE (6 h, tissue Plasma): 0.5 mg/dL
Ca (6 h, tissue Plasma): 10.2 mg/dL
Cl (6 h, tissue Plasma): 105.6 meq/L
DBIL (6 h, tissue Plasma): 0.02 mg/dL
GLC (6 h, tissue Plasma): 191.4 mg/dL
IP (6 h, tissue Plasma): 9.4 mg/dL
K (6 h, tissue Plasma): 5.1 meq/L
LDH (6 h, tissue Plasma): 83.6 IU/L
Na (6 h, tissue Plasma): 136.8 meq/L
PL (6 h, tissue Plasma): 126.4 mg/dL
RALB (6 h, tissue Plasma): 3.8 g/dL
TBIL (6 h, tissue Plasma): 0.3 mg/dL
TC (6 h, tissue Plasma): 75.8 mg/dL
TG (6 h, tissue Plasma): 53.2 mg/dL
TP (6 h, tissue Plasma): 6 g/dL
gamma-GTP (6 h, tissue Plasma): 1.4 IU/L
TERMINAL_BW (9 h): 198.6 g
APTT (9 h, tissue Blood): 16.5 s
Bas (9 h, tissue Blood): 0%
Eos (9 h, tissue Blood): 0.8%
Fbg (9 h, tissue Blood): 213 mg/dL
Hb (9 h, tissue Blood): 13.1 g/dL
Ht (9 h, tissue Blood): 39.4%
Lym (9 h, tissue Blood): 83.6%
MCH (9 h, tissue Blood): 21.8 pg
MCHC (9 h, tissue Blood): 33.3%
MCV (9 h, tissue Blood): 65.5 fL
Mono (9 h, tissue Blood): 6.6%
Neu (9 h, tissue Blood): 9.2%
PT (9 h, tissue Blood): 12.6 s
Plat (9 h, tissue Blood): 102.1 x10_4/uL
RBC (9 h, tissue Blood): 602 x10_4/ul
Ret (9 h, tissue Blood): 10.2%
WBC (9 h, tissue Blood): 141 x10_2/uL
KIDNEY_L (9 h): 0.9 g
KIDNEY_R (9 h): 1 g
KIDNEY_TOTAL (9 h): 1.9 g
LIVER (9 h): 8 g
A/G (9 h, tissue Plasma): 2.6
ALP (9 h, tissue Plasma): 915 IU/L
ALT (9 h, tissue Plasma): 35.6 IU/L
AST (9 h, tissue Plasma): 68.2 IU/L
BUN (9 h, tissue Plasma): 10.6 mg/dL
CRE (9 h, tissue Plasma): 0.5 mg/dL
Ca (9 h, tissue Plasma): 10 mg/dL
Cl (9 h, tissue Plasma): 106.8 meq/L
DBIL (9 h, tissue Plasma): 0.072 mg/dL
GLC (9 h, tissue Plasma): 187.4 mg/dL
IP (9 h, tissue Plasma): 10 mg/dL
K (9 h, tissue Plasma): 5.1 meq/L
LDH (9 h, tissue Plasma): 92.8 IU/L
Na (9 h, tissue Plasma): 137.4 meq/L
PL (9 h, tissue Plasma): 141.6 mg/dL
RALB (9 h, tissue Plasma): 3.8 g/dL
TBIL (9 h, tissue Plasma): 0.5 mg/dL
TC (9 h, tissue Plasma): 85.8 mg/dL
TG (9 h, tissue Plasma): 45.2 mg/dL
